From patent publication US11660280B2, “Treatment of drug resistant gliomas” (OKLAHOMA MEDICAL RESEARCH FOUNDATION, priority 2017, dated 2023)

How the values were obtained:
[1] = tested on: HIF-1α; experiment: RT-PCR gene-fold changes in human GBM cells; type: cell-based
Method: Quantification of mRNA by real-time quantitative RT-PCR for HIF-1a, MPG and MGMT. Total RNA from all cell lines with all treatments was purified with an RNeasy Mini Kit (Qiagen), and quantified by spectrophotometry (Nanodrop). cDNA was synthesized using SuperScript IV Reverse Transcriptase Kit (Invitrogen).
Target gene mRNA was amplified and measured by Bio-Rad CFX96™ Real Time System. Gene expression was determined using the SYBR Select Master Mix (Applied Biosystems). […] The reaction is characterized by the point during cycling when amplification of PCR products is first detected, rather than the amount of PCR product accumulated after a fixed number of cycles. The higher the starting quantity of the template, the earlier a significant increase in fluorescence is observed. The threshold cycle is defined as the fractional cycle number at which fluorescence passes a fixed threshold above the baseline. Fluorescence data were converted into cycle threshold measurements exported to Microsoft Excel. Glyceraldehyde-3-phosphatase dehydrogenase (GAPDH) mRNA expression levels were used as the quantitative internal control. For precise quantification, the mRNA expression level of each sample was normalized using the expression of the GAPDH gene.
All primers were synthesized by Integrated DNA Technologies. The primers used were: […]

[2] = tested on: HIF-1α; experiment: ELISA protein level in human GBM cell lysates; type: cell-based
Method: (§1) ELISA for HIF-1a, MPG and MGMT. Protein expressions were assessed in all six glioma cell lines for all four groups of treatment (cell alone, cells with TMZ, cells with OKN, cells with combined OKN and TMZ). Cells were lysed before assaying. In brief, cells were washed by cold PBS gently, and then detached with trypsin, and collected by centrifugation at 1,000×g for 5 minutes. Then, cells were washed three times in cold PBS, then suspended in fresh lysis buffer. Lysates were centrifuged at 1,500×g for 10 minutes at 2-8° C. to remove cellular debris.
(§2) The assay is based on the sandwich ELISA principle. Each well of the supplied microtiter plate has been pre-coated with a target specific capture antibody. Standards or samples are added to the wells and the target antigen binds to the capture antibody. Unbound Standard or sample is washed away. A biotin-conjugated detection antibody is then added which binds to the captured antigen. Unbound detection antibody is washed away. An Avidin-Horseradish Peroxidase (HRP) conjugate is then added which binds to the biotin. Unbound Avidin-HRP conjugate is washed away. A TMB substrate is then added which reacts with the HRP enzyme resulting in color development. A sulfuric acid stop solution is added to terminate color development reaction and then the optical density (OD) of the well is measured at a wavelength of 450 nm±2 nm. The OD of an unknown sample can then be compared to an OD standard curve generated using known antigen concentrations in order to determine its antigen concentration.
(§3) The antigen concentration determined from ELISA was then normalized to the total protein concentration of each cell lysate in order to have comparison between groups. ELISA Kits for N-Methylpurine DNA Glycosylase (MPG) and for Hypoxia Inducible Factor 1 Alpha (HIF1a) were purchased from CLOUD-CLONE CORP.(CCC) and for Human MGMT from LifeSpan Biosciences, Inc.

[3] = tested on: MGMT; experiment: ELISA protein level in human GBM cell lysates; type: cell-based
Method: as §1, §2, §3

[4] = tested on: MPG; experiment: ELISA protein level in human GBM cell lysates; type: cell-based
Method: as §1, §2, §3

[5] = tested on: TGFβ1; experiment: TGFβ1 protein levels (IHC, ELISA) in F98 gliomas; type: in vivo, rat
Method: Mice and Treatments. Animal studies were conducted in accordance to the OMRF IACUC (Institutional Animal Care and Use Committee) policies, which follow NIH guidelines. For the F98 rat glioma cell implantation model, F98 cells (10^5 in 10-μ1 volume) were intracerebrally implanted with a stereotaxic device (2 mm lateral and 2 mm anterior to the bregma, and at a 3 mm depth) in a total of 15 Fischer 344 rats (male 200-250 gm). The animals were divided into two groups once tumors reached 10-20 mm^3 in volume (as determined by MRI): OKN-007 treated (n=8) and untreated (UT) (n=7) groups. Rats were treated until tumors reached 200-250 mm^3 in volume or for a total of 4-6 weeks. For the G55 GBM cell implantation model, two-month-old male nude mice (Hsd:Athymic Nude-Foxnlnu mice; Harlan Inc., Indianapolis, IN) were implanted intracerebrally with human G55 xenograft cells (1×10^6) per mL suspended in 4 μL in cell culture media of 1% agarose solution. Once tumors reached 10-15 mm^3 (determined via MRI), mice were either treated daily with OKN-007 in the drinking water (150 mg/kg; 0.20% w/v for a 20 g mouse), or every 3 days with TMZ (30 mg/kg). OKN-007 was dissolved in water and made fresh every 2 days. Water bottles were weighed, and the amount of OKN-007 consumed per mouse was determined. […] The average intake of OKN-007 was approximately 140-150 mg/kg/day/mouse. […]

CC(C)(C)[N+]([O-])=Cc1ccc(S(=O)(=O)O)cc1S(=O)(=O)O [OKN-007, 2,4-disulfonyl phenyl tert-butyl nitrone]
RT-PCR gene-fold change HIF-1α ([1]; G55 cells (TMZ-resistant), UT 1.00): 1.20 fold
RT-PCR gene-fold change HIF-1α ([1]; LN18 cells (TMZ-resistant), UT 1.03): 1.35 fold
RT-PCR gene-fold change HIF-1α ([1]; LN229 cells (TMZ-sensitive), UT 1.00): 1.09 fold
RT-PCR gene-fold change HIF-1α ([1]; T98 cells (TMZ-resistant), UT 1.00): 0.58 fold
RT-PCR gene-fold change HIF-1α ([1]; U138 cells (TMZ-resistant), UT 1.00): 2.93 fold
RT-PCR gene-fold change HIF-1α ([1]; U251 cells (TMZ-sensitive), UT 1.00): 1.59 fold
ELISA protein level HIF-1α ([2]; G55 cells, UT 0.14): 0.19 ng/mg cell lysate
ELISA protein level HIF-1α ([2]; LN18 cells, UT 0 76): 0.92 ng/mg cell lysate
ELISA protein level HIF-1α ([2]; LN229 cells, UT 0.68): 0.66 ng/mg cell lysate
ELISA protein level HIF-1α ([2]; T98 cells, UT 0.42): 0.58 ng/mg cell lysate
ELISA protein level HIF-1α ([2]; U138 cells, UT 0.40): 0.33 ng/mg cell lysate
ELISA protein level HIF-1α ([2]; U251 cells, UT 0.30): 0.61 ng/mg cell lysate
ELISA protein level MGMT ([3]; G55 cells, UT 0.37): 0.31 ng/mg cell lysate
ELISA protein level MGMT ([3]; LN18 cells, UT 1.23): 0.98 ng/mg cell lysate
ELISA protein level MGMT ([3]; LN229 cells, UT 0.67): 0.69 ng/mg cell lysate
ELISA protein level MGMT ([3]; T98 cells, UT 0.62): 0.84 ng/mg cell lysate
ELISA protein level MGMT ([3]; U138 cells, UT 0.77): 0.75 ng/mg cell lysate
ELISA protein level MGMT ([3]; U251 cells, UT 0.92): 0.91 ng/mg cell lysate
ELISA protein level MPG ([4]; G55 cells, UT 1.15): 1.41 ng/mg cell lysate
ELISA protein level MPG ([4]; LN18 cells, UT 2.18): 2.38 ng/mg cell lysate
ELISA protein level MPG ([4]; LN229 cells, UT 2.34): 1.88 ng/mg cell lysate
ELISA protein level MPG ([4]; T98 cells, UT 3.04): 3.61 ng/mg cell lysate
ELISA protein level MPG ([4]; U138 cells, UT 1.30): 1.22 ng/mg cell lysate
ELISA protein level MPG ([4]; U251 cells, UT 2.70): 2.77 ng/mg cell lysate
TGFβ1 protein levels by immunohistochemistry compared to UT tumors ([5]; F98 gliomas): substantially reduced
TGFβ1 protein expression by ELISA compared to UT tumors ([5]; F98 tumor tissue lysates, p<0.001): significantly decreased
